Measurements taken from ChEMBL document CHEMBL1155886, “Discovery of piperidine-aryl urea-based stearoyl-CoA desaturase 1 inhibitors” (Bioorg Med Chem Lett, 2008).
Calls of active or inactive are those of the source. No cut-off for these calls is given here.

Key:
[1] = biological target: T1, Acyl-CoA desaturase 1 (Mus musculus, UniProt P13516); assay: Inhibition of mouse SCD1
T1 sequence (P13516 whole entry): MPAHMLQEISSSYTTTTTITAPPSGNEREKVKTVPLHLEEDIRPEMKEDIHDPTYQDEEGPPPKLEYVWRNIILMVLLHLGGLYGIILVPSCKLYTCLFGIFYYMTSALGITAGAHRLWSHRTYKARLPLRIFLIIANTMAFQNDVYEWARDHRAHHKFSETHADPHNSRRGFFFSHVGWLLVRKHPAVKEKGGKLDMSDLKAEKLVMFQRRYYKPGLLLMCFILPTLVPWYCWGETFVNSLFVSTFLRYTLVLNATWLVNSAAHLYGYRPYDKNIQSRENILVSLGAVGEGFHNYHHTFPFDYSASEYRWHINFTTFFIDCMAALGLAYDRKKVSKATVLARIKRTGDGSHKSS

[2] = Inhibition of human recombinant SCD1 expressed in baculovirus/insect cell system
[3] = Clearance in mouse plasma; assay type: ADME, organism-based
[4] = Volume of distribution at steady state in mouse; assay type: ADME, organism-based; conditions: in vivo, read-out: Vdss
[5] = Oral bioavailability in mouse; assay type: ADME, organism-based; conditions: in vivo
[6] = biological target: Cytochrome b5 (Homo sapiens) (UniProt P00167); assay: Inhibition of cytochrome b5 at >10 uM
Chain of Cytochrome b5 (Homo sapiens) (P00167 whole entry): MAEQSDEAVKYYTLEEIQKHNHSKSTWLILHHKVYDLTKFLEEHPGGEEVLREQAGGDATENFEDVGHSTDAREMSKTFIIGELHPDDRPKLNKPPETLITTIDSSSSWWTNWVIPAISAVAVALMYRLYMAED

[7] = Inhibition of cytochrome b5 reductase at >10 uM
[8] = test system: Mus musculus; assay: Reduction in desaturation index in liver of ob/ob mouse assessed as ratio of C16:0/C16:1n7 at 10 mg/kg bid; assay type: functional, organism-based; parameters: dose 10 mg/kg
[9] = test system: Mus musculus; assay: Reduction in desaturation index in liver of ob/ob mouse assessed as ratio of C18:0/C18:1n9 at 10 mg/kg bid; assay type: functional, organism-based; parameters: dose 10 mg/kg
[10] = test system: Mus musculus; assay: Reduction in desaturation index in plasma of ob/ob mouse assessed as ratio of C18:0/C18:1n9 at 10 mg/kg bid; assay type: functional, organism-based; parameters: dose 10 mg/kg
[11] = test system: Mus musculus; assay: Reduction in desaturation index in plasma of ob/ob mouse assessed as ratio of C16:0/C16:1n7 at 10 mg/kg bid; assay type: functional, organism-based; parameters: dose 10 mg/kg
[12] = organism: Mus musculus; assay: Reduction in triglyceride desaturation index in ob/ob mouse; assay type: functional, organism-based
[13] = test system: Mus musculus; assay: Reduction in desaturation index in liver of ob/ob mouse assessed as ratio of C16:0/C16:1n7 at 30 mg/kg bid; assay type: functional, organism-based; parameters: dose 30 mg/kg
[14] = test system: Mus musculus; assay: Reduction in desaturation index in liver of ob/ob mouse assessed as ratio of C18:0/C18:1n9 at 30 mg/kg bid; assay type: functional, organism-based; parameters: dose 30 mg/kg
[15] = test system: Mus musculus; assay: Reduction in desaturation index in plasma of ob/ob mouse assessed as ratio of C16:0/C16:1n7 at 30 mg/kg bid; assay type: functional, organism-based; parameters: dose 30 mg/kg
[16] = test system: Mus musculus; assay: Reduction in desaturation index in plasma of ob/ob mouse assessed as ratio of C18:0/C18:1n9 at 30 mg/kg bid; assay type: functional, organism-based; parameters: dose 30 mg/kg

Row | Structure (SMILES) | IC50 [1] [nM] | IC50 [2] [nM] | also measured
1 | CNC(=O)c1cccc(NC(=O)N2CCC(Oc3ccccc3Cl)CC2)c1 | < 4 | 37 | clearance [3]: 6.67 mL/min/kg; Vd [4]: 0.4 L/kg; bioavailability [5]: 92%; Activity [6]: inactive; Activity [7]: inactive; Activity [8]: Active; Activity [9]: Active; Activity [10]: Active; Activity [11]: Active; Activity [12]: Dose-dependent effect
2 | CNC(=O)c1cccc(NC(=O)N2CCC(Oc3ccccc3F)CC2)c1 | 98 | 680 | Activity [13]: Active; Activity [14]: Active; Activity [15]: Active; Activity [16]: Active
3 | O=C(Nc1cccc(-c2ncc[nH]2)c1)N1CCC(Oc2ccccc2Cl)CC1 | 10 | 360 | –
4 | CNC(=O)c1cccc(NC(=O)N2CCN(C(=O)c3ccccc3C(F)(F)F)CC2)c1 | 700 | – | –
5 | CNC(=O)c1ccc(NC(=O)N2CCN(C(=O)c3ccccc3C(F)(F)F)CC2)cc1 | > 10000 | – | –
6 | CNC(=O)c1cccc(NC(=O)N2CCC(Oc3ccccc3OC)CC2)c1 | 81 | 1900 | –
7 | CNC(=O)c1cccc(NC(=O)N2CCC(Oc3ccc(F)cc3Cl)CC2)c1 | 6 | 58 | –
8 | CNC(=O)c1cccc(NC(=O)N2CCC(Oc3c(F)cccc3Cl)CC2)c1 | 330 | 9700 | –
9 | CNC(=O)c1cccc(NC(=O)N2CCC(Oc3ccccc3Br)CC2)c1 | < 4 | 30 | –
10 | CC(C)NC(=O)c1cccc(NC(=O)N2CCC(Oc3ccccc3Cl)CC2)c1 | 810 | 7100 | –
11 | CNC(=O)c1cccc(NC(=O)N2CCC(Oc3cc(F)ccc3Cl)CC2)c1 | < 4 | 18 | –
12 | CCNC(=O)c1cccc(NC(=O)N2CCC(Oc3ccccc3Cl)CC2)c1 | 8 | 150 | –
13 | CNC(=O)c1cccc(NC(=O)N2CCC(Oc3ccccc3C)CC2)c1 | 17 | 120 | –
14 | Cc1noc(-c2cccc(NC(=O)N3CCC(Oc4ccccc4Cl)CC3)c2)n1 | 8 | 110 | –
15 | NC(=O)c1cccc(NC(=O)N2CCC(Oc3ccccc3Cl)CC2)c1 | 10 | 59 | –
16 | O=C(Nc1ccccc1)N1CCC(Oc2ccccc2Cl)CC1 | 590 | 7500 | –
17 | CNC(=O)c1cccc(NC(=O)N2CCC(Oc3cccc(Cl)c3)CC2)c1 | 20 | 270 | –
18 | CC(C)(C)NC(=O)c1cccc(NC(=O)N2CCC(Oc3ccccc3Cl)CC2)c1 | > 10000 | > 10000 | –
19 | CNC(=O)c1cccc(NC(=O)N2CCC(Oc3ccccc3)CC2)c1 | 370 | 4000 | –
